Reference: US6723716B1, “7-acylamino-3-heteroarylthio-3-cephem carboxylic acid antibiotics and prodrugs thereof” (Essential Therapeutics, Inc., priority 1999, dated 2004)
Like-named read-outs stand apart in the source and are kept apart here.

Legend:
[1] = In vitro stability of compounds in rat serum; type: in vitro ADME; conditions: for stability of compounds in rat serum: Table 2 data; for Stability in rat serum (% loss): after 60 min exposure to rat serum, 37° C., HPLC
Description: In general, compounds from the class of 7-acylamino-3-heteroarylthio-3-cephem carboxylic acids have higher chemical reactivity and lower stability towards chemical or enzymatic decomposition than most typical cephalosporins. […] Results shown in Table 2 represent percentage loss of the initial amount of cephalosporin compound upon 60 min incubation in rat serum.
Procedure for measuring degree of degradation of cephalosporin compounds in rat serum was as follows:
Fresh control rat serum (heparinized and stored frozen) is preincubated at 37° C. for 15 min in a shaking water bath. pH is measured using test strips. 25 μL of a 2 mg/mL solution cephalosporin compound (in water) of is then added to each matrix to make 1000 μL. Solutions were incubated at 37° C. 100 ul of solution was taken out at time=0, 15, 30, and 60 min post dose and added 200 μL 4% trichloroacetic acid, vortexed, and centrifuged for 10 min at 14,000 rpm in an Eppendorf microcentrifuge. 25 μL of each supernatant was injected onto HPLC. Experiment was repeated using 25 μL of a 0.2 mg/mL cephalosporin compound. Degradation is measured as the percentage of HPLC peak area at time t relative to peak area at time 0.
HPLC conditions: Beckman Ultrasphere C18 column. 5 u. 4.6 mm×25 cm. 1 mL/min of 95% 0.1 M ammonium acetate, pH 6, 5% ACN going to 75% buffer/organic over 20 min. UV monitored at 254 and 280 nm.

[2] = Pharmacokinetic evaluation in rat (clearance); type: in vivo; conditions: male, Sprague-Dawley (SD), serum, iv, read-out: Pharmacokinetics Clearance (converted)
Source text: Four male SD rats with femoral and jugular vein catheters were obtained from Hilltop Lab Animals, Inc. (Scottdale, Pa.). The catheters in the femoral and jugular veins were filled with 10 units/mL heparin in saline, and kept patent by changing the solution daily. The animals were quarantined for a minimum of two days prior to use, and were maintained on a 12-h light:dark schedule with constant access to food and water before and during the study. On the day of dosing, the animals weighed […] (mean±s.d.).
A 4 mg/mL (active component) dosing solution of mesylate salt of compound 17 was prepared in sterile saline for injection. […] Blood samples (0.2 mL aliquots) were collected from the jugular vein catheter 5, 15, 20, 25, 30, and 45 min, and 1, 2, 3, and 4 h after the start of the infusion. The blood was centrifuged for 10 min and the serum was stored ≦−70° C. until analysis by HPLC.
The plasma concentrations from individual animals were fit to a two-compartment model with zero order input and first-order elimination from the central compartment using weighted nonlinear regression (WinNonlin, Pharsight, Palo Alto, Calif.). Pharmacokinetic parameters were calculated from the fitted parameters using standard equations (Gibaldi M, Perrier D. 1982. Pharmacokinetics, 2nd ed., Marcel Dekker Inc., New York.).

human serum proteins = test: Serum binding determination by ultrafiltration/HPLC; type: in vitro ADME; conditions: by HPLC
Description: The more accurate measurement of binding of selected cephalosporin compounds was performed using HPLC as described below.
1. Serum is placed in a shaking water bath preheated to 37±2° C. for 5 to 10 minutes to heat serum to 37° C. Serum pH is measured and recorded, while serum is 37° C. using pH paper. Measurements are taken twice, 3 minutes apart. If the pH is not 7.4±0.4 then the pH is adjusted by blowing 5% CO2/95% O2 over the serum. After blowing for several minutes, serum is heated to 37° C. and measurements are taken twice, 3 minutes apart using pH paper to determine the pH. Store at 4° C. The serum is stable for 7 days. Always check the pH before each use.
2. Before any centrifugation, the centrifuge temperature must be adjusted to 25±2° C. Preheat the centrifuge by spinning for 45 minutes at the same speed to be used in the assay (1900 g) with two tubes of water in the rotor and the temperature set to 25° C. When the centrifuge stops immediately check the temperature of the tubes of water with a calibrated thermometer. The temperature of the tubes of water must be 25±2° C. […] Continue spinning and measuring the temperature and adjusting the setting until the temperature is 25±2° C.
3. Prepare blank ultrafiltrate by pipetting blank pH 7.4 serum into an Amicon Centrifree Micropartition devices, centrifuge: fixed angle rotor, 1900 g, 25° C. for 20 minutes. Heat ultrafiltrate in a shaking water bath preheated to 37° C. Measure ultrafiltrate pH and adjust to the pH of the serum (7.4±0.2).
4. Pipette 190 ul of blank ultrafiltrate into a set of labeled 1.7 mL polypropylene microfuge tubes for 3 of each level. Pipette 10 μL of the appropriate standard stock 50, 200, 1000 μg/mL to make standards 2.5, 10, and 50 μg/mL respectively. Vortex each tube well. One set of the standard samples are mixed 1:1 with 0.2 M acetic acid and injected onto the HPLC (MSTD). These samples are the membrane standards and will be used to compare to the other standards. Pipette 190 ul of ultrafiltrate and spike with 10 ul of whatever solution (e.g. water) the standards are prepared in to make the zero standard.
5. Pipette 475 μL of blank heated pH 7.4 serum into a set of labeled 1.7 mL polypropylene microfuge tubes for 2 of each (Serum A and Serum B). Pipette 25 μL of the 1000 μg/mL standard stock into each tube, vortex each tube well to make serum standard 50 μg/mL. Remove 100 μL of serum and deproteinate with 200 μL 4% TCA while vortexing to make serum time 0 (serum 50, T0). Place serum tubes in a shaking water bath at 37° C. for 10 minutes. Pipet 100 μL of serum out and deproteinate with 200 μL 4% TCA, to make serum time 10 min (serum 50, T10). Pipet 200 ul serum standard 50 μg/mL into an ultrafiltration device, which is not treated with TCA, to determine free drug in samples (Rat Serum 50).
6. Transfer serum and standard samples to labeled Amicon Centrifree Micropartition filters, and centrifuge: 1900 g, 25° C. for 10 minutes. The extracted serum samples (T0 and T10) are spun down and supernatant is loaded into HPLC vials.
7. 100 μL of ultrafiltrate sample and 100 μL of 0.2 M acetic acid were mixed together to stabilize the compound in ultrafiltrate.
8. Transfer entire stabilized ultrafiltrate solution to a labeled autoinjector HPLC vial cap with Teflon septa, and inject on HPLC.
Peak height or area is used in a weighted linear regression.

Question: What does the source list for `NCCSCc1nc(N)sc1SC1=C(C(=O)O)N2C(=O)[C@@H](NC(=O)/C(=N\O)c3nc(N)sc3Cl)[C@H]2SC1` [Cmpd 3, (7R)-7-[(Z)-2-(2-amino-5-chlorothiazol-4-yl)-2-(hydroxyimino)acetamido]-3-[4-(2-aminoethylthiomethyl)-2-amino-1,3-thiazol-5-ylthio]-3-cephem-4-carboxylic acid]?
Answer: stability of compounds in rat serum [1]: improved stability; Stability in rat serum (% loss) [1]: 3%; clearance ([2]; dose 27.5 mg/kg): 15.8 mL/min/kg; Serum Binding human (% of compound bound to serum) (human serum proteins): 88%

Question: With `NCCSCc1nc(SCCN)sc1SC1=C(C(=O)O)N2C(=O)[C@@H](NC(=O)/C(=N\O)c3nc(N)sc3Cl)[C@H]2SC1` [Cmpd 11, (7R)-7-[(Z)-2-(2-amino-5-chlorothiazol-4-yl)-2-(hydroxyimino)acetamido]-3-[4-(2-aminoethylthiomethyl)-2-aminoethylthio-1,3-thiazol-5-ylthio]-3-cephem-4-carboxylic acid] as the compound, how does the “Stability in rat serum (% loss)” value [1] read?
Answer: Its value is 47%.

Question: And the “Serum Binding human (% of compound bound to serum)” value (human serum proteins)?
Answer: Its value is 83%.

Question: With `NCCSCc1ncccc1SC1=C(C(=O)O)N2C(=O)[C@@H](NC(=O)/C(=N\O)c3nc(N)sc3Cl)[C@H]2SC1` [Cmpd 13, (7R)-7-[(Z)-2-(2-amino-5-chlorothiazol-4-yl)-2-(hydroxyimino)acetamido]-3-[2-(2-aminoethylthiomethyl)pyrid-3-ylthio]-3-cephem-4-carboxylic acid] as the compound, how does the “stability of compounds in rat serum” value [1] read?
Answer: Its value is “improved stability”.

Question: What about the “Stability in rat serum (% loss)” value [1] of the same compound?
Answer: The value was 9%.

Question: What about the clearance ([2]; dose 20.0 mg/kg) of the same compound?
Answer: Its clearance is 13.2 mL/min/kg.

Question: What about the “Serum Binding human (% of compound bound to serum)” value (human serum proteins) of the same compound?
Answer: Its value is 90%.

Question: With `N=C(N)NCCSCc1ncccc1SC1=C(C(=O)O)N2C(=O)[C@@H](NC(=O)/C(=N\O)c3nsc(N)n3)[C@H]2SC1` [Cmpd 14, (7R)-7-[(Z)-2-(5-amino-1,2,4-thiadiazol-3-yl)-2-(hydroxyimino)acetamido]-3-[2-(2-guanidinoethylthiomethyl)pyrid-3-ylthio]-3-cephem-4-carboxylic acid] as the compound, how does the “stability of compounds in rat serum” value [1] read?
Answer: Its value is “improved stability”.

Question: What about the “Stability in rat serum (% loss)” value [1] of the same compound?
Answer: Its value is 10%.

Question: And the “Serum Binding human (% of compound bound to serum)” value (human serum proteins)?
Answer: The value was 60%.

Question: With `NCCSCc1ncccc1SC1=C(C(=O)O)N2C(=O)[C@@H](NC(=O)/C(=N\O)c3nsc(N)n3)[C@H]2SC1` [Cmpd 17, (7R)-7-[(Z)-2-(5-amino-1,2,4-thiadiazol-3-yl)-2-(hydroxyimino)acetamido]-3-[2-(2-aminoethylthiomethyl)pyrid-3-ylthio]-3-cephem-4-carboxylic acid] as the compound, how does the “stability of compounds in rat serum” value [1] read?
Answer: Its value is “improved stability”.

Question: What about the “Stability in rat serum (% loss)” value [1] of the same compound?
Answer: Its value is 2%.

Question: And the clearance ([2]; dose 16.4 mg/kg, mesylate salt, 20 min i.v. infusion)?
Answer: Its clearance is 8.33 mL/min/kg.

Question: What about the “Serum Binding human (% of compound bound to serum)” value (human serum proteins) of the same compound?
Answer: The value was 66%.

Question: Which results are given for `NCCSCc1cnccc1SC1=C(C(=O)O)N2C(=O)[C@@H](NC(=O)/C(=N\O)c3nsc(N)n3)[C@H]2SC1` [Cmpd 18, (7R)-7-[(Z)-2-(5-amino-1,2,4-thiadiazol-3-yl)-2-(hydroxyimino)acetamido]-3-[3-(2-aminoethylthiomethyl)pyrid-4-ylthio]-3-cephem-4-carboxylic acid]?
Answer: Stability in rat serum (% loss) [1]: 23%; clearance ([2]; dose 20.0 mg/kg): 36.2 mL/min/kg; Serum Binding human (% of compound bound to serum) (human serum proteins): 66%

Question: Which “Stability in rat serum (% loss)” value [1] does the source give for `NCCSCc1cnccc1SC1=C(C(=O)O)N2C(=O)C(NC(=O)/C(=N\O)c3csc(N)n3)C2SC1` (centres unmarked) [Cmpd 19] here?
Answer: The value was 26%.

Question: And the clearance ([2]; dose 42.5 mg/kg)?
Answer: The clearance was 20.8 mL/min/kg.

Question: What about the “Serum Binding human (% of compound bound to serum)” value (human serum proteins) of the same compound?
Answer: Its value is 68%.

Question: For `NCCSCc1cnccc1SC1=C(C(=O)O)N2C(=O)[C@@H](NC(=O)/C(=N\O)c3nc(N)sc3Cl)[C@H]2SC1` [Cmpd 20, (7R)-7-[(Z)-2-(2-amino-5-chlorothiazol-4-yl)-2-(hydroxyimino)acetamido]-3-[3-(2-aminoethylthiomethyl)pyrid-4-ylthio]-3-cephem-4-carboxylic acid], which “Stability in rat serum (% loss)” value [1] is on record?
Answer: Its value is 70%.

Question: And the clearance ([2]; dose 20.0 mg/kg)?
Answer: Its clearance is 26.5 mL/min/kg.

Question: And the “Serum Binding human (% of compound bound to serum)” value (human serum proteins)?
Answer: Its value is 84%.

Question: Which “stability of compounds in rat serum” value [1] does the source give for `NCCSCc1ccncc1SC1=C(C(=O)O)N2C(=O)[C@@H](NC(=O)/C(=N\O)c3nc(N)sc3Cl)[C@H]2SC1` [Cmpd 21, (7R)-7-[(Z)-2-(2-amino-5-chlorothiazol-4-yl)-2-(hydroxyimino)acetamido]-3-[4-(2-aminoethylthiomethyl)pyrid-3-ylthio]-3-cephem-4-carboxylic acid] here?
Answer: Its value is “improved stability”.

Question: What about the “Stability in rat serum (% loss)” value [1] of the same compound?
Answer: Its value is 3%.

Question: And the clearance ([2]; dose 20.0 mg/kg)?
Answer: Its clearance is 12.2 mL/min/kg.

Question: And the “Serum Binding human (% of compound bound to serum)” value (human serum proteins)?
Answer: Its value is 90%.

Question: What does the source list for `NCCSCc1ncsc1SC1=C(C(=O)O)N2C(=O)[C@@H](NC(=O)/C(=N\O)c3cccc(N)n3)[C@H]2SC1` [Cmpd 23, (7R)-7-[(Z)-2-(2-aminopyrid-6-yl)-2-(hydroxyimino)acetamido]-3-[4-(2-aminoethylthiomethyl)-1,3-thiazol-5-ylthio]-3-cephem-4-carboxylic acid]?
Answer: stability of compounds in rat serum [1]: improved stability; Stability in rat serum (% loss) [1]: 19%; clearance ([2]; dose 20.0 mg/kg): 13.5 mL/min/kg; Serum Binding human (% of compound bound to serum) (human serum proteins): 94%

Question: For `NCCSCc1cnccc1SC1=C(C(=O)O)N2C(=O)[C@@H](NC(=O)/C(=N\O)c3cccc(N)n3)[C@H]2SC1` [Cmpd 24, (7R)-7-[(Z)-2-(2-aminopyrid-6-yl)-2-(hydroxyimino)acetamido]-3-[3-(2-aminoethylthiomethyl)pyrid-4-ylthio]-3-cephem-4-carboxylic acid], which “Stability in rat serum (% loss)” value [1] is on record?
Answer: Its value is 66%.

Question: What about the clearance ([2]; dose 20.0 mg/kg) of the same compound?
Answer: The clearance was 47.5 mL/min/kg.

Question: What about the “Serum Binding human (% of compound bound to serum)” value (human serum proteins) of the same compound?
Answer: Its value is 88%.

Question: Which results are given for `N=C(N)NCCSCc1cnccc1SC1=C(C(=O)O)N2C(=O)[C@@H](NC(=O)/C(=N\O)c3nsc(N)n3)[C@H]2SC1` [Cmpd 25, (7R)-7-[(Z)-2-(5-amino-1,2,4-thiadiazol-3-yl)-2-(hydroxyimino)acetamido]-3-[3-(2-guanidinoethylthiomethyl)pyrid-4-ylthio]-3-cephem-4-carboxylic acid]?
Answer: stability of compounds in rat serum [1]: improved stability; Stability in rat serum (% loss) [1]: 45%; clearance ([2]; dose 20.0 mg/kg): 18.7 mL/min/kg; Serum Binding human (% of compound bound to serum) (human serum proteins): 47%
